Data as given in article PMC3409642 (Pharmaceutical research, 2012).
Like-named read-outs stand apart in the source and are kept apart here.

Assays:
UGT1A9 [1] = target: T1, UGT1A9 (Homo sapiens, UniProt O60656); test: Kinetic profiling of glucuronidation by expressed human UGT1A9; conditions: for Log (CLint) (Actual): log of experimental CLint (μl/mg/min); for Vmax: pH 7.4
T1 sequence (O60656 26-530): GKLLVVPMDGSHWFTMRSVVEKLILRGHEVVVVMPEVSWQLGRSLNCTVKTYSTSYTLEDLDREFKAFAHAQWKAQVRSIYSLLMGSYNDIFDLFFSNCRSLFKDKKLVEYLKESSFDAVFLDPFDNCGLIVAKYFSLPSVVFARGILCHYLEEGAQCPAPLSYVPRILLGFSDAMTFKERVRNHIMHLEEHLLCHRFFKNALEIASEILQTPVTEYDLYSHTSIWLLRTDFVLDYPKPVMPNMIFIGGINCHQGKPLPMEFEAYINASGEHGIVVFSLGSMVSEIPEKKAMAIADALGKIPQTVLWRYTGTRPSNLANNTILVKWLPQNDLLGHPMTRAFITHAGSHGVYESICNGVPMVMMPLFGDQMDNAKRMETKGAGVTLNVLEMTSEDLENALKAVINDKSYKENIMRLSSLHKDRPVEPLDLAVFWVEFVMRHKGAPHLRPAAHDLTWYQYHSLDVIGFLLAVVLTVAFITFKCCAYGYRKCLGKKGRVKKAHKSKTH

UGT1A9 [2] = target: T1, UGT1A9; test: in vitro
UGT1A9 [3] = target: T1, UGT1A9; conditions: for Log (CLint) (Actual): recombinant enzyme

Compound	Log (CLint) (Actual) (UGT1A9 [1])	Log (CLint) (Actual) (UGT1A9 [3]; human, pH 7.4)	further results
O=c1c(O)c(-c2ccccc2)oc2cc(O)cc(O)c12 [85.a, Galangin]	4.04	–	Log (CLint) (Actual) (UGT1A9 [1]; listed as 85.b): 3.68; Km (UGT1A9 [2]; pH 7.4, Km): 0.68 µM
O=C(/C=C/c1ccccc1)c1ccccc1O [compound 5, 2′-Hydroxychalcone]	–	3.12	–
Cc1cc(O)c2c(c1)C(=O)c1cc(O)cc(O)c1C2=O [compound 18, Emodin]	–	3.01	CLint (Vmax/Km) (UGT1A9 [3]; human, pH 7.4): 1020 µL/min/mg; Km (UGT1A9 [2]; pH 7.4, Km): 2.87 µM
Oc1cccc2ccccc12 [compound 21, Naphthol]	–	2.46	Vmax (UGT1A9 [1]): 72.1 pmol/mg/min; CLint (Vmax/Km) (UGT1A9 [3]; human, pH 7.4): 288 µL/min/mg
O=c1cc(-c2ccccc2)oc2cccc(O)c12 [compound 34, 5-Hydroxyflavone]	–	2.09	–
O=c1cc(-c2cccc(O)c2)oc2cc(O)c(O)cc12 [compound 36, 6,7,3′-Trihydroxflavone]	–	–	CLint (Vmax/Km) (UGT1A9 [3]): 775 µL/min/mg; Log (CLint) (Actual) (UGT1A9 [3]; human): 2.89; Km (UGT1A9 [3]; pH 7.4): 3.01 µM
Cc1cc(O)cc2oc(-c3ccccc3)cc(=O)c12 [compound 48, 7-Hydoxy-5-methylflavone]	–	–	CLint (Vmax/Km) (UGT1A9 [3]): 5712 µL/min/mg; Log (CLint) (Actual) (UGT1A9 [3]; human): 3.76; Km (UGT1A9 [3]; pH 7.4): 0.94 µM
O=c1cc(-c2ccc(O)cc2)oc2cc(O)cc(O)c12 [compound 50, Apigenin]	–	3.23	–
O=c1cc(-c2ccccc2)oc2cc(O)c(O)c(O)c12 [compound 51, Baicalein]	–	3.88	Km (UGT1A9 [2]; pH 7.4, Km): 0.7 µM
O=c1cc(-c2ccccc2)oc2cc(O)cc(O)c12 [compound 52, Chrysin]	–	3.96	–
COc1c(O)cc2oc(-c3ccccc3)cc(=O)c2c1O [compound 57, OroxylinA]	–	2.94	–
O=c1c(O)c(-c2ccc(O)cc2)oc2ccccc12 [compound 64, 3,4′-Dihydroxyfavone]	–	–	CLint (Vmax/Km) (UGT1A9 [3]): 14000 µL/min/mg; Log (CLint) (Actual) (UGT1A9 [3]; human): 4.14; Km (UGT1A9 [3]; pH 7.4): 0.13 µM
O=c1c(O)c(-c2ccccc2)oc2ccc(O)cc12 [compound 65, 3,6-Dihydroxyfavone]	–	–	CLint (Vmax/Km) (UGT1A9 [3]): 21000 µL/min/mg; Log (CLint) (Actual) (UGT1A9 [3]; human): 4.32; Km (UGT1A9 [3]; pH 7.4): 0.62 µM
COc1cc(-c2oc3cc(O)cc(O)c3c(=O)c2O)ccc1O [compound 87, Isorhamnetin]	–	4.59	–
COc1cc(/C=C/C(=O)O)ccc1O [compound 95, Ferulic Acid]	–	–	Vmax (UGT1A9 [1]): 372 pmol/mg/min; CLint (Vmax/Km) (UGT1A9 [3]): 0.4 µL/min/mg; Log (CLint) (Actual) (UGT1A9 [3]; human): 0.30; Km (UGT1A9 [3]; pH 7.4): 884 µM
COc1ccc(-c2coc3cc(O)cc(O)c3c2=O)cc1 [compound 100, Biochanin A]	–	–	CLint (Vmax/Km) (UGT1A9 [3]): 335 µL/min/mg; Log (CLint) (Actual) (UGT1A9 [3]; human): 2.53; Km (UGT1A9 [3]; pH 7.4): 1.13 µM
O=c1c(-c2ccc(O)cc2)coc2cc(O)ccc12 [compound 101, Daidzein]	–	1.89	CLint (Vmax/Km) (UGT1A9 [3]; human, pH 7.4): 77 µL/min/mg
O=C1c2ccc(O)cc2OCC1c1ccc(O)cc1 (stereo not drawn) [compound 102, Dihydrodaidzein]	–	–	CLint (Vmax/Km) (UGT1A9 [3]): 8.1 µL/min/mg; Log (CLint) (Actual) (UGT1A9 [3]; human): 0.91; Km (UGT1A9 [3]; pH 7.4): 77.7 µM
COc1ccc(-c2coc3cc(O)ccc3c2=O)cc1 [compound 104, Formononetin]	1.48	–	–

Compound	Log (CLint) (Actual) (UGT1A9 [1])	Log (CLint) (Actual) (UGT1A9 [3]; human, pH 7.4)	further results
O=c1c(-c2ccc(O)cc2)coc2cc(O)cc(O)c12 [compound 105, Genistein]	2.79	–	CLint (Vmax/Km) (UGT1A9 [3]; human, pH 7.4): 617 µL/min/mg; Km (UGT1A9 [2]; pH 7.4): 2.09 µM
COc1cc2c(=O)c(-c3ccc(O)cc3)coc2cc1O [compound 106, Glycitein]	2.44	–	–
Oc1ccc2c(c1)OC[C@H]1c3cc4c(cc3O[C@@H]21)OCO4 [compound 107, Maackiain]	1.87	–	–
COc1cc(O)c2c(=O)c(-c3ccc(O)cc3)coc2c1 [compound 108, Prunetin]	2.25	–	–
CCCCc1ccc(O)cc1 [compound 110, 4-n-Butylphenol]	–	1.18	Km (UGT1A9 [2]; pH 7.4, Km): 43.1 µM
Oc1ccc(Cl)cc1 [compound 111, 4-Chlorophenol]	1.98	–	–
Oc1ccc(C2CCCC2)cc1 [compound 112, 4-Cyclopentylphenol]	1.78	–	–
CCOc1ccc(O)cc1 [compound 113, 4-Ethoxyphenol]	0.92	–	–
CCc1ccc(O)cc1 [compound 114, 4-Ethylphenol]	1.87	–	–
Oc1ccc(F)cc1 [compound 115, 4-Fluorophenol]	1.18	–	–
CC(C)c1ccc(O)cc1 [compound 117, 4-Isopropylphenol]	1.78	–	Km (UGT1A9 [2]; pH 7.4): 36.4 µM
COc1ccc(O)cc1 [compound 118, 4-Methoxyphenol]	1.18	–	–
Cc1ccc(O)cc1 [compound 119, 4-Methylphenol]	–	1.39	–
O=[N+]([O-])c1ccc(O)cc1 [compound 120, 4-Nitrophenol]	1.56	–	–
CC(=O)c1ccc(O)cc1 [compound 121, 4-Hydroxyacetophenone]	1.15	–	–
O=C(c1ccccc1)c1ccc(O)cc1 [compound 122, 4-Hydroxybenzophenone]	1.83	–	–
Oc1ccc(-c2ccccc2)cc1 [compound 123, 4-Phenylphenol]	1.34	–	–
Oc1ccc(N=Nc2ccccc2)cc1 [compound 124, 4-Phenylazophenol]	–	–	CLint (Vmax/Km) (UGT1A9 [3]): 14 µL/min/mg; Log (CLint) (Actual) (UGT1A9 [3]; human): 1.15; Km (UGT1A9 [3]; pH 7.4): 82.5 µM
CCCOc1ccc(O)cc1 [compound 125, 4-Propoxyphenol]	1.00	–	–

Compound	Log (CLint) (Actual) (UGT1A9 [1])	Log (CLint) (Actual) (UGT1A9 [3]; human, pH 7.4)	further results
CCCc1ccc(O)cc1 [compound 126, 4-n-Propylphenol]	1.62	–	–
CCC(C)c1ccc(O)cc1 (stereo not drawn) [compound 127, 4-sec-Butylphenol]	1.57	–	CLint (Vmax/Km) (UGT1A9 [3]; human, pH 7.4): 37 µL/min/mg; Km (UGT1A9 [2]; pH 7.4, Km): 87.5 µM
CCCCOC(=O)c1ccc(O)cc1 [compound 129, Butyl-4-hydroxybenzoate]	1.51	–	–
CCOC(=O)c1ccc(O)cc1 [compound 130, Ethyl-4-hydroxybenzoate]	–	1.61	–
C=CCc1ccc(O)c(OC)c1 [compound 131, Eugenol]	–	1.60	–
COC(=O)c1ccc(O)cc1 [compound 132, Methyl-4-hydroxybenzoate]	–	1.73	–
CCCOC(=O)c1ccc(O)cc1 [compound 134, Propyl-4-hydroxybenzoate]	–	1.48	–
CC(C)(c1ccc(O)cc1)c1ccc(O)cc1 [compound 135, Bisphenol A]	–	1.68	–
COc1ccc(/C=C\c2cc(OC)c(OC)c(OC)c2)cc1O [compound 136, Combretastatin A4]	3.33	–	–
COc1cc(/C=C/c2ccc(O)cc2)cc(OC)c1 [compound 137, Pterostilbene]	0.05	–	–
Oc1ccc(/C=C/c2cc(O)cc(O)c2)cc1 [compound 138, Resveratrol]	1.8	–	–
CCN(CC)C(=O)/C(C#N)=C/c1cc(O)c(O)c([N+](=O)[O-])c1 [compound 140, Entacapone, reference compound]	4.01	–	–
O=C1[C@H](CC[C@H](O)c2ccc(F)cc2)[C@@H](c2ccc(O)cc2)N1c1ccc(F)cc1 [compound 141, Ezetimibe, reference compound]	−0.56	–	–
COc1c(C)c2c(c(O)c1C/C=C(\C)CCC(=O)O)C(=O)OC2 [compound 142, Mycophenolic Acid, reference compound]	1.96	–	–
CN(C)CCc1c[nH]c2cccc(O)c12 [compound 143, Psilocin]	–	0.90	–
CCc1c2c(nc3ccc(O)cc13)-c1cc3c(c(=O)n1C2)COC(=O)[C@]3(O)CC [compound 144, SN-38]	–	–	CLint (Vmax/Km) (UGT1A9 [3]): 3 µL/min/mg; Log (CLint) (Actual) (UGT1A9 [3]; human): 0.44
Cc1ccc(C(=O)c2cc(O)c(O)c([N+](=O)[O-])c2)cc1 [compound 145, Tolcapone, reference compound]	2.62	–	–
C[C@]12CC[C@@H]3c4ccc(O)cc4CC[C@H]3[C@@H]1CC[C@@H]2O [estradiol, reference compound]	–	–	glucuronide metabolite formation on incubation with UGT1A9 (non-substrate) (UGT1A9 [3]): no metabolite can be detected
(−)-Epigallocatechingallate [1.a]	2.20	–	Log (CLint) (Actual) (UGT1A9 [1]; listed as 1.b): 2.81
